Among the data in US20250114338A1, “TETRAHYDRO-PYRIDO[3,4-b]INDOLE ESTROGEN RECEPTOR MODULATORS AND USES THEREOF” (Genentech, Inc., priority 2014, published 2025) are EC50 values, retold here.

As a reminder, the EC50 is the concentration giving half of the maximal effect.

For one experiment, the system named is ER-alpha MCF7. Nature of the experiment: ER-alpha MCF7 HCS EC50; stated as measured by in vitro cell proliferation assays of Examples 902 and 903. It is filed as cell-based. The note with it: Homo sapiens, MCF7, MCF7 cells; Table 2. In outline: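 MCF7 cells seeded 1000-2000 cells/well for 16 h, then treated with nine-point 1:2 DMSO dilution series in quadruplicate at 37 °C, 5% CO2 for 4 days. Viable cells quantified by CellTiter-Glo ATP luminescence; EC50 calculated. Controls: fulvestrant at final 100 nM, DMSO 0.2% v/v.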
With `C[C@@H]1Cc2c([nH]c3ccccc23)[C@@H](c2c(F)cc(OC3CN(C4CCC4)C3)cc2F)N1CC(C)(C)F` [Example 193, (1R,3R)-1-[4-(1-cyclobutylazetidin-3-yl)oxy-2,6-difluoro-phenyl]-2-(2-fluoro-2-methyl-propyl)-3-methyl-1,3,4,9-tetrahydropyrido[3,4-b]indole], the EC50 turned out to be 0.484 nM.
Same read-out and setting: under `C[C@H]1Cc2c([nH]c3ccc(F)cc23)[C@H](c2c(F)cc(OCCN3CC(CF)C3)cc2F)N1CC(F)(F)CO` [Example 360, 3-((1S,3S)-1-(2,6-difluoro-4-(2-(3-(fluoromethyl)azetidin-1-yl)ethoxy)phenyl)-6-fluoro-3-methyl-1,3,4,9-tetrahydro-2H-pyrido[3,4-b]indol-2-yl)-2,2-difluoropropan-1-ol] stands 9 nM; under `C[C@@H]1Cc2c([nH]c3ccccc23)[C@@H](c2c(F)cc(OCCN3CC(CF)C3)cc2F)N1C(=O)CC1CCC1` [Example 158, 2-cyclobutyl-1-[(1R,3R)-1-[2,6-difluoro-4-[2-[3-(fluoromethyl)azetidin-1-yl]ethoxy]phenyl]-3-methyl-1,3,4,9-tetrahydropyrido[3,4-b]indol-2-yl]ethanone], 10 nM; under `C[C@@H]1Cc2c([nH]c3ccccc23)[C@H](c2c(F)cc(OCCN3CC(CF)C3)cc2F)N1CC(F)(F)F` [Example 175, (1S,3R)-1-[2,6-difluoro-4-[2-[3-(fluoromethyl)azetidin-1-yl]ethoxy]phenyl]-3-methyl-2-(2,2,2-trifluoroethyl)-1,3,4,9-tetrahydropyrido[3,4-b]indole], 14 nM.
`CC[C@H]1Cc2c([nH]c3ccccc23)[C@@H](c2c(F)cc(OCCN3CC(CF)C3)cc2F)N1CC(C)(C)F` [Example 172, (1R,3S)-1-(2,6-difluoro-4-(2-(3-(fluoromethyl)azetidin-1-yl)ethoxy)phenyl)-3-ethyl-2-(2-fluoro-2-methylpropyl)-2,3,4,9-tetrahydro-1H-pyrido[3,4-b]indole]: the EC50 worked out at 17 nM.
Take `CC(CO)C(=O)N1[C@H](c2c(F)cc(OCCN3CC(CF)C3)cc2F)c2[nH]c3ccccc3c2C[C@H]1C` (stereo partly drawn) [Example 181, 1-((1R,3R)-1-(2,6-difluoro-4-(2-(3-(fluoromethyl)azetidin-1-yl)ethoxy)phenyl)-3-methyl-3,4-dihydro-1H-pyrido[3,4-b]indol-2(9H)-yl)-3-hydroxy-2-methylpropan-1-one]: the EC50 was determined as 4 nM.
As for `C[C@@H]1Cc2c([nH]c3ccccc23)[C@@H](c2c(F)cc(OC3CN(C4CC(F)(F)C4)C3)cc2F)N1CC(C)(C)F` [Example 307, (1R,3R)-1-[4-[1-(3,3-difluorocyclobutyl)azetidin-3-yl]oxy-2,6-difluoro-phenyl]-2-(2-fluoro-2-methyl-propyl)-3-methyl-1,3,4,9-tetrahydropyrido[3,4-b]indole], the EC50 worked out at 0.193 nM.
On to `C[C@@H]1Cc2c([nH]c3ccccc23)[C@@H](c2ccc(OCCN3CC(CF)C3)cc2)N1S(=O)(=O)N(C)C` [Example 329, (1R,3R)-1-[4-[2-[3-(fluoromethyl)azetidin-1-yl]ethoxy]phenyl]-N,N,3-trimethyl-1,3,4,9-tetrahydropyrido[3,4-b]indole-2-sulfonamide], for which the EC50 is 1 nM.
`CCC(C)CN1CC(Oc2cc(F)c([C@@H]3c4[nH]c5ccccc5c4C[C@@H](C)N3CC(C)(C)F)c(F)c2)C1` (stereo partly drawn) [Example 191, (1R,3R)-1-(2,6-difluoro-4-((1-(2-methylbutyl)azetidin-3-yl)oxy)phenyl)-2-(2-fluoro-2-methylpropyl)-3-methyl-2,3,4,9-tetrahydro-1H-pyrido[3,4-b]indole]: the EC50 was 0.267 nM.
On to `C[C@@H]1Cc2c([nH]c3ccccc23)[C@@H](c2c(F)cc(OC3CN(CCCF)C3)cc2F)N1C[C@@H](CO)C(F)(F)F` [Example 376, (S)-2-(((1R,3R)-1-(2,6-difluoro-4-((1-(3-fluoropropyl)azetidin-3-yl)oxy)phenyl)-3-methyl-1,3,4,9-tetrahydro-2H-pyrido[3,4-b]indol-2-yl)methyl)-3,3,3-trifluoropropan-1-ol], for which the EC50 was 1 nM.
Regarding `C[C@@H]1Cc2c([nH]c3ccc(F)cc23)[C@@H](c2c(F)cc(NC3CN(CCCF)C3)cc2F)N1CC(F)F` [Example 389, N-(4-((1R,3R)-2-(2,2-difluoroethyl)-6-fluoro-3-methyl-2,3,4,9-tetrahydro-1H-pyrido[3,4-b]indol-1-yl)-3,5-difluorophenyl)-1-(3-fluoropropyl)azetidin-3-amine], the EC50 is 0.056 nM.
As to `C[C@@H]1Cc2c([nH]c3ccccc23)[C@@H](c2c(F)cc(OC3CN(CCCF)C3)cc2F)N1CC1(F)COC1` [Example 411, (1R,3R)-1-(2,6-difluoro-4-(1-(3-fluoropropyl)azetidin-3-yloxy)phenyl)-2-((3-fluorooxetan-3-yl)methyl)-3-methyl-2,3,4,9-tetrahydro-1H-pyrido[3,4-b]indole], the EC50 was 0.07 nM.
With `C[C@@H]1Cc2c([nH]c3ccccc23)[C@@H](c2c(F)cc(OCCN3CC(CF)C3)cc2F)N1CC1(F)CCC1` [Example 153, (1R,3R)-1-[2,6-difluoro-4-[2-[3-(fluoromethyl)azetidin-1-yl]ethoxy]phenyl]-2-[(1-fluorocyclobutyl)methyl]-3-methyl-1,3,4,9-tetrahydropyrido[3,4-b]indole], the EC50 worked out at 0.221 nM.
As for `C[C@H]1Cc2c([nH]c3cc(F)ccc23)[C@H](c2c(F)cc(OC3CN(CCCF)C3)cc2F)N1CC(C)(C)F` [Example 252, (1S,3S)-1-(2,6-difluoro-4-((1-(3-fluoropropyl)azetidin-3-yl)oxy)phenyl)-7-fluoro-2-(2-fluoro-2-methylpropyl)-3-methyl-2,3,4,9-tetrahydro-1H-pyrido[3,4-b]indole], the EC50 is 50 nM.
`C[C@@H]1Cc2c([nH]c3ccccc23)[C@@H](c2c(F)cc(OCCN3CC(CF)C3)cc2F)N1C[C@H](C)C(=O)N(C)C` [Example 297, (S)-3-((1R,3R)-1-(2,6-difluoro-4-(2-(3-(fluoromethyl)azetidin-1-yl)ethoxy)phenyl)-3-methyl-1,3,4,9-tetrahydro-2H-pyrido[3,4-b]indol-2-yl)-N,N,2-trimethylpropanamide]: the EC50 was found to be 18 nM.
The same measure, in the same setting: as for `C[C@@H]1Cc2c([nH]c3ccccc23)[C@@H](c2c(F)cc(OC3CN(CCCF)C3)cc2F)N1CC(F)F` [Example 303, (1R,3R)-2-(2,2-difluoroethyl)-1-[2,6-difluoro-4-[1-(3-fluoropropyl)azetidin-3-yl]oxy-phenyl]-3-methyl-1,3,4,9-tetrahydropyrido[3,4-b]indole], the figure is 0.0482 nM; as for `C[C@H]1Cc2c([nH]c3cccc(F)c23)[C@H](c2c(F)cc(NC3CN(CCCF)C3)cc2F)N1CC(F)(F)CO` [Example 417, 3-((1S,3S)-1-(2,6-difluoro-4-((1-(3-fluoropropyl)azetidin-3-yl)amino)phenyl)-5-fluoro-3-methyl-3,4-dihydro-1H-pyrido[3,4-b]indol-2(9H)-yl)-2,2-difluoropropan-1-ol], 3.3 nM.

The same experiment, now with this note: Homo sapiens; MCF7 cells; Table 2.
Regarding `C[C@@H]1Cc2c([nH]c3ccccc23)[C@@H](c2c(F)cc(OCCN3CC(CF)C3)cc2F)N1C(=O)C(C)(F)F` [Example 159, 1-[(1R,3R)-1-[2,6-difluoro-4-[2-[3-(fluoromethyl)azetidin-1-yl]ethoxy]phenyl]-3-methyl-1,3,4,9-tetrahydropyrido[3,4-b]indol-2-yl]-2,2-difluoro-propan-1-one], the EC50 is 0.147 nM.
